These compounds were tested on CAL-120 (assay: normalised response (% of control), CellTox Green; higher = less cell death (100 = DMSO, 0 = benzethonium chloride kill control)). Conditions: incubation time: 72 h.
Outline: (§1)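 Two readouts were taken after 72 h: CellTox Green fluorescence (485/520 nm) first, then CellTiter-Glo luminescence after 10 min at room temperature. Breast cancer cell lines had been seeded as 20 µl suspension into 384-well plates holding compound at 5 concentrations in 10-fold steps across a compound-specific 10,000-fold range. Each value is a normalised signal at a single concentration, with plates scaled to 0.1 % DMSO (100) and a positive kill control (0).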
Work on `CN1CCN(c2ccc3nc(-c4c(N)c5c(F)cccc5[nH]c4=O)[nH]c3c2)CC1` [Dovitinib] (100 nM) yielded a normalised response of 96%.
`COc1ccc(C2=N[C@@H](c3ccc(Cl)cc3)[C@@H](c3ccc(Cl)cc3)N2C(=O)N2CCNC(=O)C2)c(OC(C)C)c1` [Nutlin-3] (100 nM) gave a normalised response of 102%.
With `FC(F)c1nc2ccccc2n1-c1nc(N2CCOCC2)nc(N2CCOCC2)n1` [ZSTK474] (100 nM) the normalised response was 102%.
Compound `CS(=O)(=O)OCCCCOS(C)(=O)=O` [Busulfan] (1000 nM) has a normalised response of 97.8%.
For `COC(=O)C[C@](O)(CCCC(C)(C)O)C(=O)O[C@@H]1C(OC)=C[C@]23CCCN2CCc2cc4c(cc2[C@H]13)OCO4` [Omacetaxine] (100 nM), the normalised response was 99.4%.
`Cn1cnc2c(F)c(Nc3ccc(Br)cc3F)c(C(=O)NOCCO)cc21` [MEK-162] (10 nM) gave a normalised response of 97.6%.
In the case of `C[C@@H]1CCN(C(=O)CC#N)C[C@@H]1N(C)c1ncnc2[nH]ccc12` [Tofacitinib] (50 nM), the normalised response is reported as 99.7%.
`COc1cccc2c1C(=O)c1c(O)c3c(c(O)c1C2=O)C[C@@](O)(C(C)=O)C[C@@H]3O[C@H]1C[C@H](N)[C@H](O)[C@H](C)O1` [Daunorubicin] (10 nM) gave a normalised response of 102%.

The compounds below were run on MDA-MB-453 in the same assay as above. Conditions: incubation time: 72 h.
Outline: as §1
In the case of `CN1CCN(c2ccc3nc(-c4c(N)c5c(F)cccc5[nH]c4=O)[nH]c3c2)CC1` [Dovitinib] (100 nM), the normalised response is reported as 101%.
For `COc1ccc(C2=N[C@@H](c3ccc(Cl)cc3)[C@@H](c3ccc(Cl)cc3)N2C(=O)N2CCNC(=O)C2)c(OC(C)C)c1` [Nutlin-3] (100 nM), the normalised response was 97.3%.
Compound `FC(F)c1nc2ccccc2n1-c1nc(N2CCOCC2)nc(N2CCOCC2)n1` [ZSTK474] (100 nM) has a normalised response of 85.6%.
In the case of `CS(=O)(=O)OCCCCOS(C)(=O)=O` [Busulfan] (1000 nM), the normalised response is reported as 103%.
`COC(=O)C[C@](O)(CCCC(C)(C)O)C(=O)O[C@@H]1C(OC)=C[C@]23CCCN2CCc2cc4c(cc2[C@H]13)OCO4` [Omacetaxine] (100 nM) was tested, and the normalised response was 110%.
`Cn1cnc2c(F)c(Nc3ccc(Br)cc3F)c(C(=O)NOCCO)cc21` [MEK-162] (10 nM) gave a normalised response of 104%.
Compound `C[C@@H]1CCN(C(=O)CC#N)C[C@@H]1N(C)c1ncnc2[nH]ccc12` [Tofacitinib] (50 nM) has a normalised response of 103%.
Compound `COc1cccc2c1C(=O)c1c(O)c3c(c(O)c1C2=O)C[C@@](O)(C(C)=O)C[C@@H]3O[C@H]1C[C@H](N)[C@H](O)[C@H](C)O1` [Daunorubicin] (10 nM) has a normalised response of 107%.

The compounds below were run on CAL-51 in the same assay as above. Conditions: incubation time: 72 h.
Outline: as §1
In the case of `CN1CCN(c2ccc3nc(-c4c(N)c5c(F)cccc5[nH]c4=O)[nH]c3c2)CC1` [Dovitinib] (100 nM), the normalised response is reported as 107%.
`COc1ccc(C2=N[C@@H](c3ccc(Cl)cc3)[C@@H](c3ccc(Cl)cc3)N2C(=O)N2CCNC(=O)C2)c(OC(C)C)c1` [Nutlin-3] (100 nM) was tested, and the normalised response was 97.1%.
In the case of `FC(F)c1nc2ccccc2n1-c1nc(N2CCOCC2)nc(N2CCOCC2)n1` [ZSTK474] (100 nM), the normalised response is reported as 102%.
For `CS(=O)(=O)OCCCCOS(C)(=O)=O` [Busulfan] (1000 nM), the normalised response was 109%.
`COC(=O)C[C@](O)(CCCC(C)(C)O)C(=O)O[C@@H]1C(OC)=C[C@]23CCCN2CCc2cc4c(cc2[C@H]13)OCO4` [Omacetaxine] (100 nM) gave a normalised response of 121%.
Work on `Cn1cnc2c(F)c(Nc3ccc(Br)cc3F)c(C(=O)NOCCO)cc21` [MEK-162] (10 nM) yielded a normalised response of 112%.
With `C[C@@H]1CCN(C(=O)CC#N)C[C@@H]1N(C)c1ncnc2[nH]ccc12` [Tofacitinib] (50 nM) the normalised response was 113%.
`COc1cccc2c1C(=O)c1c(O)c3c(c(O)c1C2=O)C[C@@](O)(C(C)=O)C[C@@H]3O[C@H]1C[C@H](N)[C@H](O)[C@H](C)O1` [Daunorubicin] (10 nM) was tested, and the normalised response was 91.5%.

The compounds below were run on CAL-85-1 in the same assay as above. Conditions: incubation time: 72 h.
Outline: as §1
`CN1CCN(c2ccc3nc(-c4c(N)c5c(F)cccc5[nH]c4=O)[nH]c3c2)CC1` [Dovitinib] (100 nM) gave a normalised response of 90.3%.
`COc1ccc(C2=N[C@@H](c3ccc(Cl)cc3)[C@@H](c3ccc(Cl)cc3)N2C(=O)N2CCNC(=O)C2)c(OC(C)C)c1` [Nutlin-3] (100 nM) was tested, and the normalised response was 102%.
Compound `FC(F)c1nc2ccccc2n1-c1nc(N2CCOCC2)nc(N2CCOCC2)n1` [ZSTK474] (100 nM) has a normalised response of 108%.
In the case of `CS(=O)(=O)OCCCCOS(C)(=O)=O` [Busulfan] (1000 nM), the normalised response is reported as 101%.
Work on `COC(=O)C[C@](O)(CCCC(C)(C)O)C(=O)O[C@@H]1C(OC)=C[C@]23CCCN2CCc2cc4c(cc2[C@H]13)OCO4` [Omacetaxine] (100 nM) yielded a normalised response of 10.6%.
`Cn1cnc2c(F)c(Nc3ccc(Br)cc3F)c(C(=O)NOCCO)cc21` [MEK-162] (10 nM) gave a normalised response of 99.8%.
With `C[C@@H]1CCN(C(=O)CC#N)C[C@@H]1N(C)c1ncnc2[nH]ccc12` [Tofacitinib] (50 nM) the normalised response was 99.7%.
`COc1cccc2c1C(=O)c1c(O)c3c(c(O)c1C2=O)C[C@@](O)(C(C)=O)C[C@@H]3O[C@H]1C[C@H](N)[C@H](O)[C@H](C)O1` [Daunorubicin] (10 nM) showed a normalised response of 98.8%.

Each compound was assayed on MDA-MB-468 in the same assay as above. Conditions: incubation time: 72 h.
Outline: as §1
Work on `CN1CCN(c2ccc3nc(-c4c(N)c5c(F)cccc5[nH]c4=O)[nH]c3c2)CC1` [Dovitinib] (100 nM) yielded a normalised response of 87.8%.
In the case of `COc1ccc(C2=N[C@@H](c3ccc(Cl)cc3)[C@@H](c3ccc(Cl)cc3)N2C(=O)N2CCNC(=O)C2)c(OC(C)C)c1` [Nutlin-3] (100 nM), the normalised response is reported as 100%.
`FC(F)c1nc2ccccc2n1-c1nc(N2CCOCC2)nc(N2CCOCC2)n1` [ZSTK474] (100 nM) showed a normalised response of 97.3%.
With `CS(=O)(=O)OCCCCOS(C)(=O)=O` [Busulfan] (1000 nM) the normalised response was 121%.
For `COC(=O)C[C@](O)(CCCC(C)(C)O)C(=O)O[C@@H]1C(OC)=C[C@]23CCCN2CCc2cc4c(cc2[C@H]13)OCO4` [Omacetaxine] (100 nM), the normalised response was 113%.

Reference: the supplement of paper PMC4862054
